From article PMC11062899, “De novo development of small cyclic peptides that are orally bioavailable” (Nature Chemical Biology, 2023)

Target: human α-thrombin (Homo sapiens, UniProt P00734)
Test: Sub-library screen for active and permeable cyclic peptides (PAMPA plus thrombin inhibition)
Format: biochemical
Conditions: crude, slopes normalized to DMSO; for Residual thrombin activity: Top sample: PAMPA acceptor well after 14 h, 5 μM donor; for Residual thrombin activity: Equilibrated sample: donor sample diluted to theoretical equilibrium (1 μM in assay)
How it was run: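 Acylated cyclic peptides at 5 μM in PBS pH 7.4 with 5% DMSO were run through PAMPA for 14 h at room temperature. Acceptor wells and a diluted donor sample at 3 μM, representing maximum permeability, were preincubated 10 min with human α-thrombin (6 nM stock). Z-Gly-Gly-Arg-AMC (150 μM stock) fluorescence was then read for 30 min at 25 °C, and inhibition was taken against a no-peptide control.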

| Structure (SMILES) | Residual thrombin activity: Top sample | Residual thrombin activity: Equilibrated sample |
| --- | --- | --- |
| Cc1cccc(C[C@@H]2NC(=O)[C@@H](NC(=O)c3ccc(Cl)s3)CSCc3ccc(cc3)CSCCNC(=O)C[C@H]3CCCN3C2=O)c1 [C1-X37-L3] | 95.4 | 90.2 |
| Cc1cccc(C[C@@H]2NC(=O)[C@@H](NC(=O)c3ccc(Cl)s3)CSC/C=C/CSCCNC(=O)C[C@H]3CCCN3C2=O)c1 [C1-X37-L4] | 87.8 | 60.4 |
| Cc1cccc(C[C@@H]2NC(=O)[C@@H](NC(=O)c3ccc(Cl)s3)CSCc3cccc(c3)CSCCNC(=O)C[C@H]3CCCN3C2=O)c1 [C1-X37-L5] | 100.9 | 88.0 |
| Cc1cccc(C[C@@H]2NC(=O)[C@@H](NC(=O)c3ccc(Cl)s3)CSCc3ccccc3CSCCNC(=O)C[C@H]3CCCN3C2=O)c1 [C1-X37-L6] | 93.2 | 84.4 |
| Cc1cccc(C[C@@H]2NC(=O)[C@@H](NC(=O)c3ccc(Cl)s3)CSCC(=O)CSCCNC(=O)C[C@H]3CCCN3C2=O)c1 [C1-X37-L7] | 94.3 | 97.7 |
| O=C1C[C@H]2CCCN2C(=O)[C@H](Cc2ccccc2)NC(=O)[C@@H](NC(=O)c2ccc(Cl)s2)CCSCc2cccc(n2)CSCCN1 [C2-X5-L1] | 56.1 | 37.8 |
| O=C1C[C@H]2CCCN2C(=O)[C@H](Cc2ccccc2)NC(=O)[C@@H](NC(=O)c2ccc(Cl)s2)CCSCCS(=O)(=O)CCSCCN1 [C2-X5-L2] | 89.4 | 25.8 |
| O=C1C[C@H]2CCCN2C(=O)[C@H](Cc2ccccc2)NC(=O)[C@@H](NC(=O)c2ccc(Cl)s2)CCSCc2ccc(cc2)CSCCN1 [C2-X5-L3] | 86.6 | 59.6 |
| O=C1C[C@H]2CCCN2C(=O)[C@H](Cc2ccccc2)NC(=O)[C@@H](NC(=O)c2ccc(Cl)s2)CCSC/C=C/CSCCN1 [C2-X5-L4] | 61.9 | 33.0 |
| O=C1C[C@H]2CCCN2C(=O)[C@H](Cc2ccccc2)NC(=O)[C@@H](NC(=O)c2ccc(Cl)s2)CCSCc2cccc(c2)CSCCN1 [C2-X5-L5] | 90.5 | 54.8 |
| O=C1C[C@H]2CCCN2C(=O)[C@H](Cc2ccccc2)NC(=O)[C@@H](NC(=O)c2ccc(Cl)s2)CCSCc2ccccc2CSCCN1 [C2-X5-L6] | 87.4 | 76.1 |
| O=C1CSCCNC(=O)C[C@H]2CCCN2C(=O)[C@H](Cc2ccccc2)NC(=O)[C@@H](NC(=O)c2ccc(Cl)s2)CCSC1 [C2-X5-L7] | 95.7 | 44.2 |
| O=C1C[C@H]2CCCN2C(=O)[C@@H](Cc2ccccc2)NC(=O)[C@@H](NC(=O)c2ccc(Cl)s2)CCSCc2cccc(n2)CSCCN1 [C2-X31-L1] | 93.0 | 90.7 |
| O=C1C[C@H]2CCCN2C(=O)[C@@H](Cc2ccccc2)NC(=O)[C@@H](NC(=O)c2ccc(Cl)s2)CCSCCS(=O)(=O)CCSCCN1 [C2-X31-L2] | 98.7 | 98.6 |
| O=C1C[C@H]2CCCN2C(=O)[C@@H](Cc2ccccc2)NC(=O)[C@@H](NC(=O)c2ccc(Cl)s2)CCSCc2ccc(cc2)CSCCN1 [C2-X31-L3] | 96.0 | 100.5 |
| O=C1C[C@H]2CCCN2C(=O)[C@@H](Cc2ccccc2)NC(=O)[C@@H](NC(=O)c2ccc(Cl)s2)CCSC/C=C/CSCCN1 [C2-X31-L4] | 98.4 | 104.3 |
| O=C1C[C@H]2CCCN2C(=O)[C@@H](Cc2ccccc2)NC(=O)[C@@H](NC(=O)c2ccc(Cl)s2)CCSCc2cccc(c2)CSCCN1 [C2-X31-L5] | 105.0 | 96.6 |
| O=C1C[C@H]2CCCN2C(=O)[C@@H](Cc2ccccc2)NC(=O)[C@@H](NC(=O)c2ccc(Cl)s2)CCSCc2ccccc2CSCCN1 [C2-X31-L6] | 92.4 | 88.8 |
| O=C1CSCCNC(=O)C[C@H]2CCCN2C(=O)[C@@H](Cc2ccccc2)NC(=O)[C@@H](NC(=O)c2ccc(Cl)s2)CCSC1 [C2-X31-L7] | 102.6 | 101.7 |
| CN1C(=O)[C@@H](NC(=O)c2ccc(Cl)s2)CCSCc2cccc(n2)CSCCNC(=O)C[C@H]2CCCN2C(=O)[C@@H]1Cc1ccccc1 [C2-X32-L1] | 92.7 | 101.7 |
| CN1C(=O)[C@@H](NC(=O)c2ccc(Cl)s2)CCSCCS(=O)(=O)CCSCCNC(=O)C[C@H]2CCCN2C(=O)[C@@H]1Cc1ccccc1 [C2-X32-L2] | 93.7 | 100.8 |

| Structure (SMILES) | Residual thrombin activity: Top sample | Residual thrombin activity: Equilibrated sample |
| --- | --- | --- |
| CN1C(=O)[C@@H](NC(=O)c2ccc(Cl)s2)CCSCc2ccc(cc2)CSCCNC(=O)C[C@H]2CCCN2C(=O)[C@@H]1Cc1ccccc1 [C2-X32-L3] | 97.8 | 96.9 |
| CN1C(=O)[C@@H](NC(=O)c2ccc(Cl)s2)CCSC/C=C/CSCCNC(=O)C[C@H]2CCCN2C(=O)[C@@H]1Cc1ccccc1 [C2-X32-L4] | 99.0 | 101.4 |
| CN1C(=O)[C@@H](NC(=O)c2ccc(Cl)s2)CCSCc2cccc(c2)CSCCNC(=O)C[C@H]2CCCN2C(=O)[C@@H]1Cc1ccccc1 [C2-X32-L5] | 104.7 | 100.8 |
| CN1C(=O)[C@@H](NC(=O)c2ccc(Cl)s2)CCSCc2ccccc2CSCCNC(=O)C[C@H]2CCCN2C(=O)[C@@H]1Cc1ccccc1 [C2-X32-L6] | 94.2 | 95.9 |
| CN1C(=O)[C@@H](NC(=O)c2ccc(Cl)s2)CCSCC(=O)CSCCNC(=O)C[C@H]2CCCN2C(=O)[C@@H]1Cc1ccccc1 [C2-X32-L7] | 101.9 | 101.7 |
| COc1ccc(C[C@@H]2NC(=O)[C@@H](NC(=O)c3ccc(Cl)s3)CCSCc3cccc(n3)CSCCNC(=O)C[C@H]3CCCN3C2=O)cc1 [C2-X33-L1] | 95.4 | 94.0 |
| COc1ccc(C[C@@H]2NC(=O)[C@@H](NC(=O)c3ccc(Cl)s3)CCSCCS(=O)(=O)CCSCCNC(=O)C[C@H]3CCCN3C2=O)cc1 [C2-X33-L2] | 98.8 | 98.9 |
| COc1ccc(C[C@@H]2NC(=O)[C@@H](NC(=O)c3ccc(Cl)s3)CCSCc3ccc(cc3)CSCCNC(=O)C[C@H]3CCCN3C2=O)cc1 [C2-X33-L3] | 100.8 | 99.6 |
| COc1ccc(C[C@@H]2NC(=O)[C@@H](NC(=O)c3ccc(Cl)s3)CCSC/C=C/CSCCNC(=O)C[C@H]3CCCN3C2=O)cc1 [C2-X33-L4] | 100.6 | 93.7 |
| COc1ccc(C[C@@H]2NC(=O)[C@@H](NC(=O)c3ccc(Cl)s3)CCSCc3cccc(c3)CSCCNC(=O)C[C@H]3CCCN3C2=O)cc1 [C2-X33-L5] | 104.9 | 49.9 |
| COc1ccc(C[C@@H]2NC(=O)[C@@H](NC(=O)c3ccc(Cl)s3)CCSCc3ccccc3CSCCNC(=O)C[C@H]3CCCN3C2=O)cc1 [C2-X33-L6] | 92.7 | 95.5 |
| COc1ccc(C[C@@H]2NC(=O)[C@@H](NC(=O)c3ccc(Cl)s3)CCSCC(=O)CSCCNC(=O)C[C@H]3CCCN3C2=O)cc1 [C2-X33-L7] | 102.7 | 99.9 |
| O=C1C[C@H]2CCCN2C(=O)[C@H](Cc2ccc(Cl)cc2)NC(=O)[C@@H](NC(=O)c2ccc(Cl)s2)CCSCc2cccc(n2)CSCCN1 [C2-X34-L1] | 87.1 | 93.9 |
| O=C1C[C@H]2CCCN2C(=O)[C@H](Cc2ccc(Cl)cc2)NC(=O)[C@@H](NC(=O)c2ccc(Cl)s2)CCSCCS(=O)(=O)CCSCCN1 [C2-X34-L2] | 99.3 | 99.5 |
| O=C1C[C@H]2CCCN2C(=O)[C@H](Cc2ccc(Cl)cc2)NC(=O)[C@@H](NC(=O)c2ccc(Cl)s2)CCSCc2ccc(cc2)CSCCN1 [C2-X34-L3] | 99.4 | 99.1 |
| O=C1C[C@H]2CCCN2C(=O)[C@H](Cc2ccc(Cl)cc2)NC(=O)[C@@H](NC(=O)c2ccc(Cl)s2)CCSC/C=C/CSCCN1 [C2-X34-L4] | 98.6 | 98.5 |
| O=C1C[C@H]2CCCN2C(=O)[C@H](Cc2ccc(Cl)cc2)NC(=O)[C@@H](NC(=O)c2ccc(Cl)s2)CCSCc2cccc(c2)CSCCN1 [C2-X34-L5] | 106.3 | 106.4 |
| O=C1C[C@H]2CCCN2C(=O)[C@H](Cc2ccc(Cl)cc2)NC(=O)[C@@H](NC(=O)c2ccc(Cl)s2)CCSCc2ccccc2CSCCN1 [C2-X34-L6] | 93.6 | 95.7 |
| O=C1CSCCNC(=O)C[C@H]2CCCN2C(=O)[C@H](Cc2ccc(Cl)cc2)NC(=O)[C@@H](NC(=O)c2ccc(Cl)s2)CCSC1 [C2-X34-L7] | 104.6 | 101.4 |
| N#Cc1ccc(C[C@@H]2NC(=O)[C@@H](NC(=O)c3ccc(Cl)s3)CCSCc3cccc(n3)CSCCNC(=O)C[C@H]3CCCN3C2=O)cc1 [C2-X35-L1] | 95.8 | 96.1 |
